Measured values as given in PubChem BioAssay AID1963439 (Molecular Pharmacology Branch, DTP, NCI, 2024).

System: NCI-H196 complex spheroids with HUVEC/MSC, growth % T/C
Experiment: Anticancer human tumor NCI-H196 cell line growth inhibition [Asc];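 further: spheroids exposed to compound for 7 days before measurement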;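 on viability, T/C: 100% = DMSO vehicle control wells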
Conditions: for IC50: curve of first compound; for viability, T/C: stronger effect = lower value
Summary of the method: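 Stromal components (HUVEC and hMSC) are co-assembled with the cancer cells into multicellular spheroids. Drugs are then added singly or paired, at concentrations falling by half-log increments from a clinically achievable maximum, capped at 10 microM without known Cmax.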

[1] = second compound 0.1 µM, first compound 0.0316 µM
[2] = second compound 0.1 µM, first compound 0.1 µM
[3] = second compound 0.1 µM, first compound 0.316 µM
[4] = second compound 0.1 µM, first compound 1 µM
[5] = second compound 0.316 µM, first compound 0.0316 µM
[6] = second compound 0.316 µM, first compound 0.1 µM
[7] = second compound 0.316 µM, first compound 0.316 µM
[8] = second compound 0.316 µM, first compound 1 µM
[9] = second compound 1 µM, first compound 0.0316 µM
[10] = second compound 1 µM, first compound 0.1 µM
[11] = second compound 1 µM, first compound 0.316 µM
[12] = second compound 1 µM, first compound 1 µM

How did the IC50 (second compound 0.01 µM) turn out when `C=CC(=O)N1CCN(c2nc(=O)n(-c3c(C)ccnc3C(C)C)c3nc(-c4c(O)cccc4F)c(F)cc23)C(C)C1` (stereo not given) + CNC(C)C(=O)NC1CN(S(=O)(=O)c2cccc(S(=O)(=O)N3CCC4CCC(C(=O)NC(c5ccccc5)c5ccccc5)N4C(=O)C(NC(=O)C(C)NC)C3)c2)CCC2CCC(C(=O)NC(c3ccccc3)c3ccccc3)N2C1=O was run?
The IC50 was less than 31.6 nM.

What about the IC50 (second compound 0.0316 µM) of the same compound?
Its IC50 is less than 31.6 nM.

And the IC50 (second compound 0.1 µM)?
The IC50 was less than 31.6 nM.

What about the IC50 (second compound 0.316 µM) of the same compound?
The IC50 was less than 31.6 nM.

And the IC50 (second compound 1 µM)?
Its IC50 is less than 31.6 nM.

What about the viability, T/C (second compound 0.01 µM, first compound 0.0316 µM) of the same compound?
Its viability, T/C is 8.2%.

What about the viability, T/C (second compound 0.01 µM, first compound 0.1 µM) of the same compound?
Its viability, T/C is 7.68%.

And the viability, T/C (second compound 0.01 µM, first compound 0.316 µM)?
Its viability, T/C is 5.38%.

And the viability, T/C (second compound 0.01 µM, first compound 1 µM)?
The viability, T/C was 6.44%.

And the viability, T/C (second compound 0.01 µM, first compound 3.16 µM)?
The viability, T/C was 8.71%.

What about the viability, T/C (second compound 0.01 µM, first compound 10 µM) of the same compound?
Its viability, T/C is 9.87%.

What about the viability, T/C (second compound 0.0316 µM, first compound 0.0316 µM) of the same compound?
The viability, T/C was 3.84%.

What about the viability, T/C (second compound 0.0316 µM, first compound 0.1 µM) of the same compound?
The viability, T/C was 5.12%.

What about the viability, T/C (second compound 0.0316 µM, first compound 0.316 µM) of the same compound?
The viability, T/C was 5.38%.

What about the viability, T/C (second compound 0.0316 µM, first compound 1 µM) of the same compound?
The viability, T/C was 8.69%.

And the viability, T/C (second compound 0.0316 µM, first compound 3.16 µM)?
The viability, T/C was 6.93%.

And the viability, T/C (second compound 0.0316 µM, first compound 10 µM)?
Its viability, T/C is 7.56%.

And the viability, T/C [1]?
The viability, T/C was 3.27%.

And the viability, T/C [2]?
The viability, T/C was 3.83%.

And the viability, T/C [3]?
The viability, T/C was 3.69%.

And the viability, T/C [4]?
Its viability, T/C is 4.2%.

And the viability, T/C (second compound 0.1 µM, first compound 3.16 µM)?
Its viability, T/C is 7.47%.

And the viability, T/C (second compound 0.1 µM, first compound 10 µM)?
Its viability, T/C is 9.85%.

And the viability, T/C [5]?
Its viability, T/C is 3.58%.

What about the viability, T/C [6] of the same compound?
Its viability, T/C is 3.64%.

And the viability, T/C [7]?
The viability, T/C was 6.15%.

And the viability, T/C [8]?
The viability, T/C was 3.67%.

And the viability, T/C (second compound 0.316 µM, first compound 3.16 µM)?
The viability, T/C was 4.47%.

And the viability, T/C (second compound 0.316 µM, first compound 10 µM)?
Its viability, T/C is 6.52%.

And the viability, T/C [9]?
The viability, T/C was 3.22%.

And the viability, T/C [10]?
The viability, T/C was 3.89%.

What about the viability, T/C [11] of the same compound?
The viability, T/C was 3.25%.

What about the viability, T/C [12] of the same compound?
The viability, T/C was 3.51%.

What about the viability, T/C (second compound 1 µM, first compound 3.16 µM) of the same compound?
Its viability, T/C is 5.33%.

What about the viability, T/C (second compound 1 µM, first compound 10 µM) of the same compound?
The viability, T/C was 9.94%.

For `NC1CCC(NC2CC2c2ccccc2)CC1` (stereo not given) + CCN1C(C(=O)NC23CCC(C(=O)O)(CC2)CC3)C(c2cccc(Cl)c2F)C2(C(=O)Nc3cc(Cl)ccc32)C12CCCCC2, which IC50 (second compound 0.03 µM) is on record?
The IC50 was greater than 100 nM.

And the IC50 (second compound 0.0949 µM)?
The IC50 was greater than 100 nM.

What about the IC50 (second compound 0.3 µM) of the same compound?
Its IC50 is greater than 100 nM.

And the IC50 (second compound 0.949 µM)?
The IC50 was greater than 100 nM.

And the IC50 (second compound 3 µM)?
The IC50 was greater than 100 nM.

What about the viability, T/C (second compound 0.03 µM, first compound 0.000316 µM) of the same compound?
The viability, T/C was 109%.

And the viability, T/C (second compound 0.03 µM, first compound 0.001 µM)?
The viability, T/C was 98%.

What about the viability, T/C (second compound 0.03 µM, first compound 0.00316 µM) of the same compound?
Its viability, T/C is 109%.

And the viability, T/C (second compound 0.03 µM, first compound 0.01 µM)?
Its viability, T/C is 110%.

And the viability, T/C (second compound 0.03 µM, first compound 0.0316 µM)?
Its viability, T/C is 105%.

What about the viability, T/C (second compound 0.03 µM, first compound 0.1 µM) of the same compound?
Its viability, T/C is 96.7%.

What about the viability, T/C (second compound 0.0949 µM, first compound 0.000316 µM) of the same compound?
The viability, T/C was 102%.

What about the viability, T/C (second compound 0.0949 µM, first compound 0.001 µM) of the same compound?
The viability, T/C was 108%.

And the viability, T/C (second compound 0.0949 µM, first compound 0.00316 µM)?
Its viability, T/C is 111%.

And the viability, T/C (second compound 0.0949 µM, first compound 0.01 µM)?
Its viability, T/C is 103%.

What about the viability, T/C (second compound 0.0949 µM, first compound 0.0316 µM) of the same compound?
Its viability, T/C is 100%.

What about the viability, T/C (second compound 0.0949 µM, first compound 0.1 µM) of the same compound?
Its viability, T/C is 105%.

And the viability, T/C (second compound 0.3 µM, first compound 0.000316 µM)?
The viability, T/C was 118%.

What about the viability, T/C (second compound 0.3 µM, first compound 0.001 µM) of the same compound?
The viability, T/C was 117%.

And the viability, T/C (second compound 0.3 µM, first compound 0.00316 µM)?
The viability, T/C was 108%.

And the viability, T/C (second compound 0.3 µM, first compound 0.01 µM)?
Its viability, T/C is 105%.

What about the viability, T/C (second compound 0.3 µM, first compound 0.0316 µM) of the same compound?
The viability, T/C was 97.8%.

And the viability, T/C (second compound 0.3 µM, first compound 0.1 µM)?
The viability, T/C was 119%.

What about the viability, T/C (second compound 0.949 µM, first compound 0.000316 µM) of the same compound?
Its viability, T/C is 111%.

What about the viability, T/C (second compound 0.949 µM, first compound 0.001 µM) of the same compound?
Its viability, T/C is 121%.

And the viability, T/C (second compound 0.949 µM, first compound 0.00316 µM)?
The viability, T/C was 112%.

And the viability, T/C (second compound 0.949 µM, first compound 0.01 µM)?
The viability, T/C was 114%.

And the viability, T/C (second compound 0.949 µM, first compound 0.0316 µM)?
Its viability, T/C is 115%.

What about the viability, T/C (second compound 0.949 µM, first compound 0.1 µM) of the same compound?
Its viability, T/C is 119%.

And the viability, T/C (second compound 3 µM, first compound 0.000316 µM)?
The viability, T/C was 119%.

What about the viability, T/C (second compound 3 µM, first compound 0.001 µM) of the same compound?
Its viability, T/C is 123%.

And the viability, T/C (second compound 3 µM, first compound 0.00316 µM)?
Its viability, T/C is 112%.

What about the viability, T/C (second compound 3 µM, first compound 0.01 µM) of the same compound?
The viability, T/C was 104%.

What about the viability, T/C (second compound 3 µM, first compound 0.0316 µM) of the same compound?
Its viability, T/C is 115%.

And the viability, T/C (second compound 3 µM, first compound 0.1 µM)?
The viability, T/C was 112%.

Which results are given for `CNC(C)C(=O)NC1CN(S(=O)(=O)c2cccc(S(=O)(=O)N3CCC4CCC(C(=O)NC(c5ccccc5)c5ccccc5)N4C(=O)C(NC(=O)C(C)NC)C3)c2)CCC2CCC(C(=O)NC(c3ccccc3)c3ccccc3)N2C1=O` (stereo not given) + Cc1c(S(C)(=O)=O)c(-c2cc(F)cc(N3CCN(c4ccc(NS(=O)(=O)c5ccc(NC(CCN6CCC(C(=O)OCCCP(=O)(O)O)CC6)CSc6ccccc6)c(S(=O)(=O)C(F)(F)F)c5)cc4)CC3)c2)c(-c2ccc(Cl)cc2)n1C(C)C?
IC50 (second compound 0.1 µM): < 3.16 nM; IC50 (second compound 0.316 µM): < 3.16 nM; IC50 (second compound 1 µM): < 3.16 nM; IC50 (second compound 3.16 µM): < 3.16 nM; IC50 (second compound 10 µM): < 3.16 nM; viability, T/C (second compound 0.1 µM, first compound 0.00316 µM): 34.8%; viability, T/C (second compound 0.1 µM, first compound 0.01 µM): 14.2%; viability, T/C [1]: 3.61%; viability, T/C [2]: 1.15%; viability, T/C [3]: 1.37%; viability, T/C [4]: 1.37%; viability, T/C (second compound 0.316 µM, first compound 0.00316 µM): 34.8%; viability, T/C (second compound 0.316 µM, first compound 0.01 µM): 13.5%; viability, T/C [5]: 2.75%; viability, T/C [6]: 2.2%; viability, T/C [7]: 0.94%; viability, T/C [8]: 0.56%; viability, T/C (second compound 1 µM, first compound 0.00316 µM): 32.3%; viability, T/C (second compound 1 µM, first compound 0.01 µM): 10.1%; viability, T/C [9]: 3.17%; viability, T/C [10]: 2.28%; viability, T/C [11]: 1.22%; viability, T/C [12]: 0.43%; viability, T/C (second compound 3.16 µM, first compound 0.00316 µM): 31.1%; viability, T/C (second compound 3.16 µM, first compound 0.01 µM): 11%; viability, T/C (second compound 3.16 µM, first compound 0.0316 µM): 3.34%; viability, T/C (second compound 3.16 µM, first compound 0.1 µM): 0.68%; viability, T/C (second compound 3.16 µM, first compound 0.316 µM): 0.36%; viability, T/C (second compound 3.16 µM, first compound 1 µM): 0.39%; viability, T/C (second compound 10 µM, first compound 0.00316 µM): 28.9%; viability, T/C (second compound 10 µM, first compound 0.01 µM): 6.64%; viability, T/C (second compound 10 µM, first compound 0.0316 µM): 2.27%; viability, T/C (second compound 10 µM, first compound 0.1 µM): 0.74%; viability, T/C (second compound 10 µM, first compound 0.316 µM): 0.42%; viability, T/C (second compound 10 µM, first compound 1 µM): 0.45%
